Patent publication US20120065126A1, “Pharmaceutical Compositions Containing Antifungal Peptides” (BASF SE, priority 2009, published 2012)
Ends that are not written are not given here.

Key:
Malassezia furfur = experiment: Growth inhibition at equal concentrations by weight of P18, zinc pyrithione, climbazole, ketoconazole (CFU); format: cell-based
Procedure: (§1) The studies described hereinafter were conducted on the Malassezia furfur strain DSM 6170.
For this purpose, the procedure was as follows:
(§2) The growth test was effected as follows: a shake culture containing M472 Pityrosporum medium was inoculated with M. furfur and incubated with shaking at 30° C. and 200 rpm overnight.
A 96-well microtiter plate was filled with 100 μl per well of M472 Pityrosporum medium and inoculated with M. furfur suspension from the overnight culture. The M. furfur suspension was adjusted at the start of the experiment to an optical density, measured at 600 nm, of 0.02. The concentrates of the inhibitor solutions were 1 mM in DMSO for P18 peptide and 10 mM in DMSO for zinc pyrithione, ketoconazole and climbazole. The final DMSO concentration was kept the same in all experiments.
The following growth was compared by measuring the optical density: • M. furfur suspension and addition of the P18 solution with a final concentration of 50 μM (corresponds to 0.0115% (w/w)) • M. furfur suspension and addition of the zinc pyrithione (ZPT) solution with a final concentration of 362 μM (comparison to the mixture containing 50 μM P18 peptide) • M. furfur suspension and addition of the ketoconazole solution with a final concentration of 216 μM (comparison to the mixture containing 50 μM P18 peptide) • M. furfur suspension and addition of the climbazole solution with a final concentration of 390 μM (comparison to the mixture containing 50 μM P18 peptide)
The microtiter plate was incubated with shaking at 30° C.
[…] After incubation over the course of 6 days, the colonies on the plate were counted. The CFU was determined in order to rule out any influence of the biphasic medium, and also the growth form of M. furfur, on the optical density. The experiments were each conducted in double determination, at least in two independent experiments.

M. furfur DSM 6170 = experiment: Comparison of further inventive peptides and AFPP (CFU); format: cell-based, Malassezia furfur; conditions: 0.3%; 10 minutes
Text: In order to compare the effect of other inventive peptides with the effect of the antifungal polypeptide AFPP from Aspergillus giganteus on the growth of Malassezia furfur, the procedure was as follows:
As a comparison, the peptide variants with SEQ ID NO. 4726 (sequence: FKKALHLFKPIKKFLKWK-NH2 (Bachem AG, Switzerland)) and SEQ ID NO. 4727 (sequence: KFLHLAKKFPKWKLFKKI-NH2 (Bachem AG, Switzerland)) were selected. The peptide and AFPP concentrates were in the form of 2% (w/w) solutions in phosphate buffer (10 mM sodium phosphate, pH 7.5, 100 mM NaCl). […]
For each test mixture, a 1.5 ml reaction vessel was filled with Pityrosporum medium and inoculated with the M. furfur overnight culture to give a start OD of 0.1, measured at 600 nm.
The growth of the following test mixtures was monitored: • M. furfur suspension and addition of 90 μl of phosphate buffer (in order to rule out any influence of the phosphate buffer on the effect of the active peptides at a final concentration of 0.3%) • M. furfur suspension with a final concentration of the inventive peptide variant with SEQ ID NO. […]
The reaction volume was 600 μl in each case. […] The CFU (colony forming units) were determined by counting after incubation at 30° C. for 6 days. […]

M. furfur = experiment: Effect of P18 variants (CFU); format: cell-based, Malassezia furfur; conditions: 50 μM peptide, with DMSO; 24 h
Procedure: as §1
The inhibitory effect of the following P18 variants on M. furfur was studied:
as §2
A 96-well microtiter plate was filled with 100 μl per well of M472 Pityrosporum medium and inoculated with M. furfur suspension from the overnight culture. The M. furfur suspension was adjusted at the start of the experiment to an optical density, measured at 600 nm, of 0.1.
The peptide variants were dissolved with a final concentration of 1 mM in dimethyl sulfoxide (DMSO). It is also possible to dispense with DMSO and to use a purely aqueous peptide solution. 5 μl of this solution were added to 100 μl of M. furfur suspension (final concentration of the P18 peptide 50 μM). In a control mixture, the same amount of DMSO without P18 peptide was added.
The microtiter plate was incubated with shaking at 30°.
After 24 h, the colony forming units (CFU) were determined by streaking 10 μl of each of the suspensions and, after incubation over the course of 6 days, counting the colonies. Two independent experiments each with three identical mixtures were conducted, and the number of colony forming units was averaged.

Compound	Colony forming units after the incubation time specified (M. furfur DSM 6170) [CFU]	Averaged number of colony forming units (CFU) (M. furfur)	other results
CC(C)(C)C(=O)C(Oc1ccc(Cl)cc1)n1ccnc1 (centres unmarked) [climbazole]			Colony forming units (CFU) (Malassezia furfur; final conc. 390 μM, 24 h): 137 ± 33 CFU; Colony forming units (CFU) (Malassezia furfur; final conc. 390 μM, 40 h): 35 ± 15 CFU
CC(=O)N1CCN(c2ccc(OCC3COC(Cn4ccnc4)(c4ccc(Cl)cc4Cl)O3)cc2)CC1 (centres unmarked) [ketoconazole]			Colony forming units (CFU) (Malassezia furfur; final conc. 216 μM, 24 h): 84 ± 76 CFU; Colony forming units (CFU) (Malassezia furfur; final conc. 216 μM, 40 h): 9 ± 5 CFU
FKKALHLFKPIKKFLKWK-NH2 [Peptide variant SEQ ID NO. 4726]	3 ± 1		
H-KWKLFKKIPKFLHLAKKF-OH [P18-OH]		3	
H-PKWKLFKKIPKFLHLAKKFD-OH [P18AC-OH]		37	
KFLHLAKKFPKWKLFKKI-NH2 [Peptide variant SEQ ID NO. 4727]	59 ± 46		
